Here are results for two compounds from article PMC9196127, “Novel STAT3 Inhibitors Targeting STAT3 Dimerization by Binding to the STAT3 SH2 Domain” (Frontiers in Pharmacology, 2022).

The structures appear in SMILES notation.

The test addresses STAT3 (Homo sapiens, UniProt P40763). Description: Fluorescence polarization (FP) competition assay with 5-FLU-GpYLPQTV-NH2. The test is classed as binding. Also on record: purchased Abcam ab43618. The following applies: FP assay. On the procedure:
The FP assay was conducted as described in [Zhao et al. (2010]). The fluorochrome-labeled phosphopeptide, 5-FLU-G (pY)LPQTV-NH2, was synthesized by ProImmune (London, United Kingdom) with over 95% purity as a probe. The recombinant human STAT3 protein was purchased from Abcam (ab43618). To obtain an inhibitory effect, drugs (0–1,000 μM) and 150 nM human STAT3 were incubated at 37°C in an assay buffer (50 mm NaCl, 10 mm HEPES, 1 mm EDTA, and 0.01% Triton X-100) for 1 h prior to co-incubation with 10 nM of the fluorochrome-labeled peptide at RT for 30 min. The plate was sealed under nitrogen and left at RT for 72 h. The fluorescence polarization was then analyzed by the BioTek Synergy™ Neo2 Multi-Mode Microplate Reader (BioTek Instruments, Winooski, VT, United States). Binding curves were fit to a log-logistic function using the R package drc. Ki was determined from the resulting IC50 using the Cheng–Prusoff equation and the Kd for fluorochrome-labeled peptide binding to STAT3, Ki = IC50/(([L])/Kd) +1. […]
FIGURE 4 Fluorescence polarization (FP) assays identified 323s as direct STAT3 SH2 domain binders. (A) Fluorescence polarization (FP) analysis of the binding of 10 nM GpYLTQTV-NH2and 150 nM human STAT3 protein with increasing concentration of drugs. […]

Chain of STAT3 (P40763 whole entry): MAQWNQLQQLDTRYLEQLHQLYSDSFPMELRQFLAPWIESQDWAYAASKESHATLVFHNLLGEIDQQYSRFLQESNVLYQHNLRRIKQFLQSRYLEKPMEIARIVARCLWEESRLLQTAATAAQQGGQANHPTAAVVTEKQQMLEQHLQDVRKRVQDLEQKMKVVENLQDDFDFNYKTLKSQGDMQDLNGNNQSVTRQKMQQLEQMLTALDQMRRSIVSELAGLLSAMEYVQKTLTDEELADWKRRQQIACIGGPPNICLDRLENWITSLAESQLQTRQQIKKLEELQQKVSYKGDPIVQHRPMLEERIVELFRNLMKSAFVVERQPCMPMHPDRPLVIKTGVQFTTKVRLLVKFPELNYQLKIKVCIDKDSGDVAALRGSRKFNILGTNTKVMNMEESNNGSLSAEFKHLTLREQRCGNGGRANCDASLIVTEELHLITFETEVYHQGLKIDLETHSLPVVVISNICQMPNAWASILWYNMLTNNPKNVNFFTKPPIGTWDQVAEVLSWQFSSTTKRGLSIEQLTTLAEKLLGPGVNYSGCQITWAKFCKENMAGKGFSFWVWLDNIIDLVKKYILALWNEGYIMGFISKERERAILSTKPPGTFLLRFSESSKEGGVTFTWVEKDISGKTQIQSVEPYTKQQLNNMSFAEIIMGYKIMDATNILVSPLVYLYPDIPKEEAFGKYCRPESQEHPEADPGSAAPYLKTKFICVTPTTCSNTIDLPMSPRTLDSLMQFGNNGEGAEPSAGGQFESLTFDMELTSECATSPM

For `C[C@@H]1CCC(c2cc3c4c(cncc4c2)[C@H](C)C3)=C1C=O` [323–1, (15R,2R)-delavatine A], the “potency to disrupt STAT3/GpYLPQTV relative to S3I-201” value was “around five-fold more potently than S3I-201”.
`C[C@@H]1CCC(c2cc3c4c(cncc4c2)[C@@H](C)C3)=C1C=O` [323–2, (15S,2R)-delavatine A]: the “potency to disrupt STAT3/GpYLPQTV relative to S3I-201” value is on record as “around five-fold more potently than S3I-201”.
